The supplement of paper PMC4862054
Values joined by “and” are separate entries in the source; they are usually repeats but may differ in a detail not shown here. Identical values can stand only once.

Experiments:
HCC1143 [1] = conditions: 72 h
Method in brief: (§1)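 Breast cancer cell lines in 20 µl suspension were added to 384-well plates already holding compound at 5 concentrations, spaced in 10-fold steps across a compound-specific 10,000-fold range, and incubated for 72 h. CellTox Green fluorescence (485/520 nm) was read first to measure cell death, followed by CellTiter-Glo luminescence for viability after 10 min at room temperature. Each plate was normalised to 0.1 % DMSO and a positive kill control. EC50 values came from dose-response curve fits and were censored at the top concentration.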

HDQ-P1 [2] = conditions: 72 h
Method in brief: as §1

Hs578T [3] = conditions: 72 h
Description: (§2)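 Drug sensitivity and resistance testing (DSRT) of breast cancer cell lines in 384-well plates, 5 concentrations in 10-fold dilutions over a compound-specific 10,000-fold range. After 72 h, cytotoxicity was read by CellTox Green fluorescence and viability by CellTiter-Glo luminescence (multiplexed), normalised to DMSO and benzethonium chloride controls. EC50 is the inflection point of the fitted dose-response curve (bottom asymptote free, so it can be relative for partial curves) and is censored at the highest tested concentration. Rows with DSS 0 (no meaningful response) were excluded.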

MDA-MB-231 [4] = conditions: 72 h
Description: as §2

CAL-51 [5] = conditions: 72 h
Description: as §2

MDA-MB-453 = conditions: 72 h
Description: as §2

MCF-10A = conditions: 72 h
Description: as §2

CAL-120 [6] = conditions: 72 h
Description: as §2

CAL-148 [7] = conditions: 72 h
Method in brief: as §1

MFM-223 [8] = conditions: 72 h
Method in brief: as §1

DU-4475 [9] = conditions: 72 h
Method in brief: as §1

CAL-85-1 [10] = conditions: 72 h
Method in brief: (§3)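 To measure viability, fluorescence at 560/590 nm was read after 2.5 µl CellTiter-Blue had been added for 2 h at 37 °C. Cells from breast cancer lines had been seeded in 20 µl suspension onto 384-well plates pre-loaded with compound dissolved in 5 µl medium and kept for 72 h. EC50 comes from a fitted percent-inhibition dose-response curve censored at the highest concentration, after per-plate normalisation to vehicle and a positive kill control, Z'-factor checks, and removal of rows with zero drug sensitivity score.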

CAL-148 [11] = conditions: 72 h; remark: listed apart in the source
Method in brief: as §3

CAL-51 [12] = conditions: 72 h; remark: listed apart in the source
Method in brief: as §3

HDQ-P1 [13] = conditions: 72 h; remark: listed apart in the source
Method in brief: as §3

DU-4475 [14] = conditions: 72 h; remark: listed apart in the source
Method in brief: as §3

HCC1599 [15] = conditions: 72 h
Method in brief: as §3

HCC1937 = conditions: 72 h
Method in brief: as §3

Hs578T [16] = conditions: 72 h; remark: listed apart in the source
Method in brief: as §3

HCC1143 [17] = conditions: 72 h; remark: listed apart in the source
Method in brief: as §3

MDA-MB-231 [18] = conditions: 72 h; remark: listed apart in the source
Method in brief: as §3

BT-474 = conditions: 72 h
Method in brief: as §3

MFM-223 [19] = conditions: 72 h; remark: listed apart in the source
Method in brief: as §3

SK-BR-3 = conditions: 72 h
Method in brief: as §3

BT-549 [20] = conditions: 72 h
Method in brief: as §3

CAL-120 [21] = conditions: 72 h; remark: listed apart in the source
Method in brief: as §3

CAL-148 [22] = experiment: drug sensitivity score (DSS), CellTiter-Blue viability (DSS (AUC-based score)); higher = stronger viability inhibition; extreme values may be limits of the assay; conditions: incubation time: 72 h
Description: (§4)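 DSRT with the CellTiter-Blue (resazurin reduction) viability readout, fluorescence 560/590 nm, 72 h incubation. Plates were normalised to DMSO and benzethonium chloride controls. DSS is computed from the area under the fitted dose-response curve (5 or 9 concentrations).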

MFM-223 [23] = conditions: 72 h; remark: listed apart in the source
Description: as §2

BT-549 [24] = conditions: 72 h; remark: listed apart in the source
Description: as §2

MDA-MB-231 [25] = experiment: drug sensitivity score (DSS), CellTiter-Blue viability (DSS (AUC-based score)); higher = stronger viability inhibition; extreme values may be limits of the assay; conditions: incubation time: 72 h
Description: as §4

HCC1599 [26] = conditions: 72 h; remark: listed apart in the source
Method in brief: as §1

MDA-MB-436 [27] = conditions: 72 h
Method in brief: as §3

MDA-MB-468 = conditions: 72 h
Method in brief: as §3

CAL-85-1 [28] = conditions: 72 h; remark: listed apart in the source
Description: as §2

CAL-148 [29] = conditions: 72 h; remark: listed apart in the source
Description: as §2

MDA-MB-436 [30] = conditions: 72 h; remark: listed apart in the source
Description: as §2

Structure (SMILES) | EC50, CellTiter-Glo (HCC1143 [1]) [nM] | EC50, CellTiter-Blue viability (HCC1599 [15]) [nM] | EC50, CellTiter-Blue viability (HCC1937) [nM] | EC50, CellTiter-Blue viability (HCC1143 [17]) [nM] | EC50, CellTiter-Blue viability (MDA-MB-231 [18]) [nM] | EC50, CellTiter-Blue viability (BT-474) [nM] | EC50, CellTiter-Blue viability (SK-BR-3) [nM] | EC50, CellTiter-Blue viability (BT-549 [20]) [nM] | EC50, CellTiter-Glo (HCC1599 [26]) [nM] | EC50, CellTiter-Blue viability (MDA-MB-436 [27]) [nM] | EC50, CellTiter-Blue viability (MDA-MB-468) [nM] | EC50, CellTiter-Glo (HDQ-P1 [2]) [nM] | EC50, CellTox Green (Hs578T [3]) [nM] | EC50, CellTox Green (MDA-MB-231 [4]) [nM] | EC50, CellTox Green (CAL-51 [5]) [nM] | EC50, CellTox Green (MDA-MB-453) [nM] | EC50, CellTox Green (MCF-10A) [nM] | EC50, CellTox Green (CAL-120 [6]) [nM] | EC50, CellTiter-Glo (CAL-148 [7]) [nM] | EC50, CellTiter-Glo (MFM-223 [8]) [nM] | EC50, CellTiter-Glo (DU-4475 [9]) [nM] | EC50, CellTiter-Blue viability (CAL-85-1 [10]) [nM] | EC50, CellTiter-Blue viability (CAL-148 [11]) [nM] | EC50, CellTiter-Blue viability (CAL-51 [12]) [nM] | EC50, CellTiter-Blue viability (HDQ-P1 [13]) [nM] | EC50, CellTiter-Blue viability (DU-4475 [14]) [nM] | EC50, CellTiter-Blue viability (Hs578T [16]) [nM] | EC50, CellTiter-Blue viability (MFM-223 [19]) [nM] | EC50, CellTiter-Blue viability (CAL-120 [21]) [nM] | drug sensitivity score (CAL-148 [22]) | EC50, CellTox Green (MFM-223 [23]) [nM] | EC50, CellTox Green (BT-549 [24]) [nM] | drug sensitivity score (MDA-MB-231 [25]) | EC50, CellTox Green (CAL-85-1 [28]) [nM] | EC50, CellTox Green (CAL-148 [29]) [nM] | EC50, CellTox Green (MDA-MB-436 [30]) [nM]
CC(C)c1c(C(=O)Nc2ccccc2)c(-c2ccccc2)c(-c2ccc(F)cc2)n1CC[C@@H](O)C[C@@H](O)CC(=O)O [Atorvastatin] | 2030 | – | – | – | – | – | – | – | – | – | – | 1250 | 3780 | 796 | 668 | > 10000 | 1940 | 9010 | – | – | – | – | – | – | – | – | – | – | – | – | – | – | – | – | – | –
CC(C)(C#N)c1cc(Cn2cncn2)cc(C(C)(C)C#N)c1 [Anastrozole] | – | – | – | – | – | – | – | – | – | – | – | – | – | – | – | > 10000 | – | – | – | – | – | – | – | – | – | – | – | – | – | 0 | – | – | 0 | – | – | –
CN(C)CCN1C(=O)c2cccc3cc(N)cc(c23)C1=O [Amonafide] | 3330 | 9620 | 1110 | 3710 | 2240 | > 10000 | 5740 | 9680 | > 10000 | 2760 | 6670 | – | – | – | 6260 | – | – | – | 4300 | 7400 | 3300 | 4450 | 1830 | 3320 | 9740 | 3240 | 9380 | 7280 | 3370 | 7.32 | – | – | 7.74 | – | 6190 | 44.4

Further lines, with some results ahead:

EC50, CellTiter-Glo (HCC1143 [1]) [nM] | EC50, CellTiter-Blue viability (HCC1599 [15]) [nM] | EC50, CellTiter-Blue viability (HCC1937) [nM] | EC50, CellTiter-Blue viability (HCC1143 [17]) [nM] | EC50, CellTiter-Blue viability (MDA-MB-231 [18]) [nM] | EC50, CellTiter-Blue viability (BT-474) [nM] | EC50, CellTiter-Blue viability (SK-BR-3) [nM] | EC50, CellTiter-Blue viability (BT-549 [20]) [nM] | EC50, CellTiter-Glo (HCC1599 [26]) [nM] | EC50, CellTiter-Blue viability (MDA-MB-436 [27]) [nM] | EC50, CellTiter-Blue viability (MDA-MB-468) [nM] | Structure (SMILES) | EC50, CellTiter-Glo (HDQ-P1 [2]) [nM] | EC50, CellTox Green (Hs578T [3]) [nM] | EC50, CellTox Green (MDA-MB-231 [4]) [nM] | EC50, CellTox Green (CAL-51 [5]) [nM] | EC50, CellTox Green (MDA-MB-453) [nM] | EC50, CellTox Green (MCF-10A) [nM] | EC50, CellTox Green (CAL-120 [6]) [nM] | EC50, CellTiter-Glo (CAL-148 [7]) [nM] | EC50, CellTiter-Glo (MFM-223 [8]) [nM] | EC50, CellTiter-Glo (DU-4475 [9]) [nM] | EC50, CellTiter-Blue viability (CAL-85-1 [10]) [nM] | EC50, CellTiter-Blue viability (CAL-148 [11]) [nM] | EC50, CellTiter-Blue viability (CAL-51 [12]) [nM] | EC50, CellTiter-Blue viability (HDQ-P1 [13]) [nM] | EC50, CellTiter-Blue viability (DU-4475 [14]) [nM] | EC50, CellTiter-Blue viability (Hs578T [16]) [nM] | EC50, CellTiter-Blue viability (MFM-223 [19]) [nM] | EC50, CellTiter-Blue viability (CAL-120 [21]) [nM] | drug sensitivity score (CAL-148 [22]) | EC50, CellTox Green (MFM-223 [23]) [nM] | EC50, CellTox Green (BT-549 [24]) [nM] | drug sensitivity score (MDA-MB-231 [25]) | EC50, CellTox Green (CAL-85-1 [28]) [nM] | EC50, CellTox Green (CAL-148 [29]) [nM] | EC50, CellTox Green (MDA-MB-436 [30]) [nM]
0.39 | 11.8 | 2.95 | 0.14 | 26.9 | 0.289 | 0.945 | 0.381 | – | – | – | CO[C@H]1C[C@@H]2CC[C@@H](C)[C@@](O)(O2)C(=O)C(=O)N2CCCC[C@H]2C(=O)O[C@H]([C@H](C)C[C@@H]2CC[C@@H](OCCO)[C@H](OC)C2)CC(=O)[C@H](C)/C=C(\C)[C@@H](O)[C@@H](OC)C(=O)[C@H](C)C[C@H](C)/C=C/C=C/C=C/1C [Everolimus] | 5.68 | – | – | – | – | – | – | 0.38 | 0.29 | 1.24 | 0.219 | 0.675 | 1.14 | 0.35 | 2.34 | 0.13 | 0.27 | 0.304 | 23 and 25.5 | 8.31 | > 100 | – | – | – | –
> 1000 | 331 | 99 | – | 676 | 613 | 597 | 340 | 973 | 43.5 | 578 | O=C1NC(=O)[C@@H](c2cn3c4c(cccc24)CCC3)[C@@H]1c1c[nH]c2ccccc12 [Tivantinib] | – | 96.6 | 474 | 671 | – | – | 399 | 810 | – | 222 | 543 | 759 | 674 | – | 847 | 592 | – | 398 | 1.69 | – | – | 1.91 | 266 | 6.67 | –
